These results are taken from ChEMBL document CHEMBL1201862, “PubChem BioAssay data set” (2004).

Molecules are shown by their SMILES.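 Results reflect a 48-hour exposure of cells in 96-well plates to compound at five concentrations. GI50 is the concentration that inhibits growth by half.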 Calls of active or inactive are those of the source. No stated cut-off is given here; in the data, active = GI50 up to about 1.1 µM and inactive = higher. A value given as a limit tells only on which side of the number the result lay.

Some test systems named below: A549; HCT-15; HL-60; HOP-62; LOX IMVI; MOLT-4; Malme-3M; NCI-H23; OVCAR-4; OVCAR-5; OVCAR-8; RXF 393; SF-295; SF-539; SK-MEL-2; SNB-75; TK-10; U-251; UACC-257; T47D.
Experiment in all cases: DTP human tumour cell line panel, 48 h

Turning to `COC(=O)C1CCc2nnc(-c3ccccc3)n21` (stereo unspecified), the GI50 (as a rule, the concentration at which growth is held to half of that of the control) in the assay on A549 is > 100 µM (inactive); with HCT-15, above 100 µM; in the assay with HL-60, > 100 µM (inactive); with HOP-62, > 100 µM (inactive); with LOX IMVI, > 100 µM (inactive); with MOLT-4, > 100 µM (inactive). Further, the GI50 in the assay on Malme-3M, with NCI-H23, with OVCAR-4, in the assay with OVCAR-5, with OVCAR-8 and in the assay on RXF 393 was > 100 µM (inactive) each time. Further, the GI50 with SF-295, in the assay with SF-539, in the assay on SK-MEL-2, in the assay with SNB-75, with TK-10 and in the assay with U-251 was > 100 µM (inactive) each time. In the assay on UACC-257, the GI50 is > 100 µM (inactive).

In the case of `CCC(=O)C(C)C(=O)C(=O)C(=O)OC` (stereo unspecified), the GI50 in the assay with A549 is > 100 µM (inactive); in the assay on HCT-15 it was above 55.8 µM; in the assay with HL-60, > 44.4 µM (inactive); in the assay on HOP-62 it was > 100 µM (inactive); in the assay with LOX IMVI, > 80.7 µM (inactive); in the assay with MOLT-4 it was > 51.4 µM (inactive). The GI50 with Malme-3M was > 100 µM (inactive); in the assay on NCI-H23, > 100 µM (inactive); in the assay with OVCAR-4 it was > 100 µM (inactive); in the assay on OVCAR-5, > 100 µM (inactive); with OVCAR-8, > 100 µM (inactive); in the assay on RXF 393, > 63.5 µM (inactive). In addition, the GI50 was > 100 µM (inactive) in the assay on SF-295; > 100 µM (inactive) in the assay with SF-539; > 100 µM (inactive) in the assay with SK-MEL-2; > 100 µM (inactive) with SNB-75; > 100 µM (inactive) with TK-10; > 47.3 µM (inactive) in the assay on U-251. For the same molecule, the GI50 with UACC-257 is > 94.6 µM (inactive).

As to `CC(=O)OCCC1c2ccccc2-n2nc(-c3ccccc3)c(O)c21` (stereo unspecified), the GI50 is 17.7 µM (inactive) in the assay with A549; 16.8 µM with HCT-15; 11.1 µM (inactive) in the assay on HL-60; 15.2 µM (inactive) in the assay with HOP-62; 13.7 µM (inactive) in the assay on LOX IMVI; 9.66 µM (inactive) with MOLT-4. The GI50 in the assay with Malme-3M was > 10 µM (inactive); in the assay on NCI-H23, 16.6 µM (inactive); with OVCAR-4, 14.3 µM (inactive); in the assay with OVCAR-5 it was 19.3 µM (inactive); in the assay with OVCAR-8, 15.7 µM (inactive); with RXF 393 it was 12.3 µM (inactive). Moreover, the GI50 with SF-295 was 20 µM (inactive); in the assay on SF-539, 21.6 µM (inactive); in the assay with SK-MEL-2 it was 27.1 µM (inactive); in the assay with SNB-75, 20.8 µM (inactive); in the assay on TK-10, 22.1 µM (inactive); with U-251, 13.3 µM (inactive). Further, the GI50 in the assay on UACC-257 is 16.8 µM (inactive).

On to `CCCCCCC(O)CC[C@H]1CCC[C@@H](C)N1` (stereo partly specified), for which the GI50 was > 100 µM (inactive) in the assay on A549; above 31.6 µM with HCT-15; > 100 µM (inactive) in the assay with HL-60; > 31.6 µM (inactive) with HOP-62; > 100 µM (inactive) in the assay with LOX IMVI; > 100 µM (inactive) in the assay with MOLT-4. In addition, the GI50 in the assay with Malme-3M was > 100 µM (inactive); with NCI-H23, > 10 µM (inactive); in the assay on OVCAR-4 it was > 10 µM (inactive); in the assay on OVCAR-5, > 10 µM (inactive); in the assay on OVCAR-8, > 10 µM (inactive); with RXF 393, > 100 µM (inactive). Moreover, the GI50 with SF-295 is > 31.6 µM (inactive); in the assay with SF-539, > 100 µM (inactive); in the assay with SK-MEL-2 it was > 10 µM (inactive); with SNB-75, > 31.6 µM (inactive); in the assay with TK-10, > 100 µM (inactive); in the assay with U-251 it was > 31.6 µM (inactive). In addition, the GI50 in the assay on UACC-257 is > 10 µM (inactive).

In the case of `Cn1c2ccccc2c2c3c(c4c5ccccc5n(C)c4c21)C(=O)N(c1ccccc1)C3=O`, the GI50 was > 100 µM (inactive) with A549; above 100 µM with HCT-15; > 100 µM (inactive) with HOP-62; > 100 µM (inactive) with LOX IMVI; > 100 µM (inactive) in the assay with MOLT-4; > 100 µM (inactive) in the assay with Malme-3M. For the same molecule, the GI50 in the assay on NCI-H23, in the assay on OVCAR-4, with OVCAR-5, in the assay on OVCAR-8, in the assay on SF-295 and with SF-539 was > 100 µM (inactive) throughout. Besides, the GI50 in the assay on SK-MEL-2, in the assay on SNB-75, in the assay with T47D, in the assay on TK-10, in the assay with U-251 and with UACC-257 was > 100 µM (inactive) in each case.

Turning to `CCCOc1ccc(/C(Cl)=C(\C=O)c2ccc(OC)c(OC)c2)cc1OCCC`, the GI50 is 5.43 µM (inactive) in the assay with A549; 5.47 µM with HCT-15; 1.84 µM (inactive) in the assay on HL-60; 19.8 µM (inactive) in the assay on HOP-62; 10.5 µM (inactive) with LOX IMVI; 2.31 µM (inactive) in the assay with MOLT-4. In addition, the concentration for 50% growth inhibition (GI50) is 0.804 µM (active) with Malme-3M; 3.46 µM (inactive) in the assay with NCI-H23; 7.03 µM (inactive) in the assay on OVCAR-4; 39.3 µM (inactive) in the assay on OVCAR-5; 11.9 µM (inactive) in the assay on OVCAR-8; 3.28 µM (inactive) with RXF 393. The GI50 in the assay on SF-295 is 13.7 µM (inactive); in the assay with SF-539, 14.1 µM (inactive); in the assay with SK-MEL-2, 11.6 µM (inactive); in the assay on SNB-75, 11.9 µM (inactive); in the assay on TK-10 it was 28.1 µM (inactive); with U-251, 5.73 µM (inactive). Also, the GI50 in the assay with UACC-257 is 11 µM (inactive).

For the molecule `Cc1ccc(S(=O)(=O)c2ccsc2NC(=O)c2ccccc2)cc1`, the GI50 is 48.1 µM (inactive) in the assay with A549; above 100 µM in the assay with HCT-15; 17 µM (inactive) in the assay on HOP-62; > 64 µM (inactive) in the assay with LOX IMVI; > 100 µM (inactive) in the assay with MOLT-4; > 100 µM (inactive) in the assay with Malme-3M. In addition, the GI50 is > 31.6 µM (inactive) in the assay with NCI-H23; 20.9 µM (inactive) in the assay on OVCAR-4; > 100 µM (inactive) in the assay with OVCAR-5; 28.6 µM (inactive) in the assay with OVCAR-8; 22.1 µM (inactive) in the assay on SF-295; 15.4 µM (inactive) in the assay with SF-539. Moreover, the GI50 in the assay with SK-MEL-2 was > 57 µM (inactive); in the assay with SNB-75 it was 28.2 µM (inactive); in the assay with T47D, > 100 µM (inactive); in the assay with TK-10, 36.3 µM (inactive); in the assay on U-251 it was 49.3 µM (inactive); in the assay with UACC-257, > 100 µM (inactive).

Regarding `Cc1cc(C)n(-c2c(O)ccc(O)c2-n2nc(C)cc2C)n1`, the GI50 was > 100 µM (inactive) in the assay on A549; above 100 µM in the assay on HCT-15; > 100 µM (inactive) with HL-60; > 100 µM (inactive) in the assay on HOP-62; > 100 µM (inactive) in the assay with LOX IMVI; > 100 µM (inactive) in the assay on MOLT-4. Besides, the GI50 in the assay with Malme-3M, in the assay on NCI-H23, in the assay on OVCAR-4, with OVCAR-5, in the assay on OVCAR-8 and in the assay with RXF 393 was > 100 µM (inactive) in each case. For the same molecule, the GI50 in the assay on SF-295 is 81.3 µM (inactive); in the assay with SF-539, > 100 µM (inactive); in the assay on SK-MEL-2, > 100 µM (inactive); with SNB-75, > 100 µM (inactive); in the assay with TK-10, > 100 µM (inactive); in the assay on U-251, > 100 µM (inactive).

Consider `CN1CCCc2nc3ccccc3n2C1`, for which the GI50 is > 100 µM (inactive) in the assay on A549; above 100 µM with HCT-15; > 100 µM (inactive) in the assay on HL-60; > 100 µM (inactive) with HOP-62; > 100 µM (inactive) in the assay with LOX IMVI; > 100 µM (inactive) in the assay with MOLT-4. The GI50 in the assay with Malme-3M, with NCI-H23, with OVCAR-4, in the assay with OVCAR-5, in the assay on OVCAR-8 and in the assay on RXF 393 was > 100 µM (inactive) each time. For the same molecule, the GI50 with SF-295, in the assay with SF-539, with SK-MEL-2, in the assay on SNB-75, in the assay on TK-10 and in the assay on U-251 was > 100 µM (inactive) throughout. Moreover, the GI50 with UACC-257 is > 100 µM (inactive).

Consider `Cc1cccc(C)c1NC(=O)C(=O)C(C#N)c1ccccc1` (stereo unspecified), for which the GI50 in the assay on A549 was > 100 µM (inactive); in the assay with HCT-15 it was above 100 µM; in the assay on HL-60, > 100 µM (inactive); in the assay with HOP-62, > 100 µM (inactive); in the assay on LOX IMVI, > 100 µM (inactive); with MOLT-4, > 100 µM (inactive). Also, the GI50 in the assay with Malme-3M, in the assay with NCI-H23, with OVCAR-4, in the assay with OVCAR-5, in the assay on OVCAR-8 and in the assay with RXF 393 was > 100 µM (inactive) each time. The GI50 in the assay with SF-295, with SF-539, in the assay on SK-MEL-2, in the assay with SNB-75, in the assay with TK-10 and in the assay on U-251 was > 100 µM (inactive) in each case. The GI50 with UACC-257 was > 100 µM (inactive).

For the molecule `CCOc1ccc(C(CN2CCOCC2)C(C)=O)cc1OC` (stereo unspecified), the GI50 with A549 was 24.6 µM (inactive); in the assay on HCT-15 it was 10 µM; in the assay with HL-60 it was 3.78 µM (inactive); in the assay on HOP-62, 21 µM (inactive); with LOX IMVI, 17 µM (inactive); in the assay on MOLT-4, 21.9 µM (inactive). For the same molecule, the GI50 was 18.5 µM (inactive) with Malme-3M; 18.6 µM (inactive) in the assay on NCI-H23; 18.3 µM (inactive) in the assay with OVCAR-4; 19 µM (inactive) in the assay with OVCAR-5; 20.1 µM (inactive) in the assay on OVCAR-8; 21 µM (inactive) in the assay on RXF 393. Also, the GI50 was 39.6 µM (inactive) with SF-295; 16 µM (inactive) in the assay with SF-539; 14.3 µM (inactive) in the assay on SK-MEL-2; 18.7 µM (inactive) with SNB-75; 17.1 µM (inactive) with TK-10; 18 µM (inactive) with U-251. In addition, in the assay on UACC-257, the GI50 was 22.1 µM (inactive).
